Measurements from patent US20230382984A1, “TRABD PROTEIN, AND MONOCLONAL ANTIBODY THEREOF, AND ISOLATION, AMPLIFICATION AND USE THEREOF” (priority 2022, published 2023).

Key:
[1] = tested on: TRABD protease; settings: cited from earlier work; for function of TRABD protein: divalent metal ion complexing agent; for TRABD protease activity: early study, metal ions
[2] = target: T1, TRABD2A protein (Homo sapiens, UniProt Q86V40); settings: different view; metal ions; cited from earlier work
T1 sequence (Q86V40 22-480): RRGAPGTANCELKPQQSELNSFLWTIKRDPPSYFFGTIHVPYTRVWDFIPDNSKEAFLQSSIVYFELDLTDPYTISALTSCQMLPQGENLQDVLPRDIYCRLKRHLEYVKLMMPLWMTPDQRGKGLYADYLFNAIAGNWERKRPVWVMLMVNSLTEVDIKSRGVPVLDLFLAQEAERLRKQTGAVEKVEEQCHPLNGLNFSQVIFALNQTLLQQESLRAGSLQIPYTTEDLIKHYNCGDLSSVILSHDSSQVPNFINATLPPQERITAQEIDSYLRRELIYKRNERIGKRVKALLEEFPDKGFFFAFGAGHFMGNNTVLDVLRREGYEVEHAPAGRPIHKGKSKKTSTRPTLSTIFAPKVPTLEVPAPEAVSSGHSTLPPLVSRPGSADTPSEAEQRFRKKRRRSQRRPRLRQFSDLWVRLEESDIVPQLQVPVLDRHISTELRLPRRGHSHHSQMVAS

[3] = tested on: CD8^+ T cells and target cells; assay: CCK8 and flow cytometry detection of toxic effect of metal cations; settings: concentration of 20 μM
Description: FIG. 4A show the effect on the target cell killing ability of CD8^+ T cells after metal cofactor intervention of TRABD2A; • A: detection of the killing activity of the CD8^+ T cells on target cells CEM.T2 when metal cations Co^2+, Ni^2+ and Mn^2+ at different concentrations act on CD8^+ T cells; • B: detection of the killing activity of the CD8^+ T cells on target cells MGC when metal cations Co^2+, Ni^2+ and Mn^2+ at different concentrations act on CD8^+ T cells; • C: CCK8 and flow cytometry detection of the toxic effect of metal cations Co^2+, Ni^2+ and Mn^2+ at different concentrations on target cells.

[4] = target: T2, TRABD2A metalloprotease on CD8^+ T cells (Homo sapiens, UniProt Q86V40); assay: Killing activity of CD8+ T cells on target cells after metal cofactor intervention of TRABD2A; format: cell-based; settings: metal cations at different concentrations acting on CD8+ T cells; target cells CEM.T2 and MGC; FIG. 4A
T2 construct: action of metal ions Mn^2+, Co^2+ and Ni^2+ on TRABD2A metalloprotease on CD8^+ T cells; endogenous in cells
T2 sequence (Q86V40 22-480): T1 sequence (Q86V40 22-480)
Description: Since TRABD2A is a metalloprotease and its activity is affected by metal ions, and the metal ion Mn^2+ having an accelerating effect on TRABD2A metalloprotease activity and metal ions Co^2+ and Ni^2+ having an inhibiting effect were examined. The effect of the TRABD2A protein on CD8^+ T cells was observed by the action of metal ions Mn^2+, Co^2+ and Ni^2+ on TRABD2A metalloprotease on CD8^+ T cells.

[5] = target: T3, TRABD2B metalloprotease on CD8^+ T cells (Homo sapiens, UniProt A6NFA1); assay: Killing activity of CD8+ T cells on target cells after metal cofactor intervention with TRABD2B; format: cell-based; settings: Ni2+ at different concentrations; target cells CEM.T2; FIG. 4B
T3 construct: action of metal ion Ni^2+ upon TRABD2B metalloprotease on CD8^+ T cells; endogenous in cells
T3 sequence (A6NFA1 20-486): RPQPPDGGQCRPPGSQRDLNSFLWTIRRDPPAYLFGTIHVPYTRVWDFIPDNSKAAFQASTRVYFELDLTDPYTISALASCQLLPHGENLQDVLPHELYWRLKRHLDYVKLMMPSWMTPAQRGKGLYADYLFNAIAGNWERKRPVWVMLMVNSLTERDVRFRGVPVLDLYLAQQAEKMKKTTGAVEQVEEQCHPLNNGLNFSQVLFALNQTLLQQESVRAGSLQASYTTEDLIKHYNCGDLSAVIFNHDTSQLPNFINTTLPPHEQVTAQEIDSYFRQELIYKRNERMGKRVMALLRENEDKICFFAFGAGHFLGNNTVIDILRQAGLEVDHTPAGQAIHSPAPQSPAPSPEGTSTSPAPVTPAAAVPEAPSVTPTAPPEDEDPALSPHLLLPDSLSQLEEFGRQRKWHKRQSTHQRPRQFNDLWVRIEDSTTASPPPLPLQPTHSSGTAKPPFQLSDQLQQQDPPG
Description: Since TRABD2B is a metalloprotease whose activity is affected by metal ions, metal ion Mn^2+ that promotes the TRABD2B metalloprotease activity was examined. The effect of the TRABD2B protein on CD8^+ T cells was observed by the action of metal ion Ni^2+ upon TRABD2B metalloprotease on CD8^+ T cells.

[6] = tested on: target cells; assay: CCK8 and flow cytometry detection of toxic effect of Ni2+ on target cells; format: cell-based; settings: concentration 20 μM
[7] = target: TRABD2A protein (antigen) (UniProt Q86V40); assay: ELISA; negative control; fit value beyond top concentration
[8] = target: T4, TRABD2A protein (antigen) (UniProt Q86V40 22-480); assay: ELISA
T4 chain: T1 sequence (Q86V40 22-480)

[9] = target: T1, TRABD2A protein; assay: Binding of synthesized TRABD2A antibodies to antigen; settings: detection with antigen; FIG. 6A
Description: Three antibodies anti-TRABD2A-1 (amino acid sequences of heavy and light chains are set forth in SEQ ID NOs: 7 and 8, respectively), anti-TRABD2A-2 (amino acid sequences of heavy and light chains are set forth in SEQ ID NOs: 13 and 14, respectively) and negative control (amino acid sequences of heavy and light chains are set forth in SEQ ID NOs: 19 and 20, respectively) synthesized in Example 5-1 were used. […] After concentration of the antibodies, the protein concentrations were measure by A280, and the concentrations of anti-TRABD2A-1, anti-TRABD2A-2 and negative control were 0.92 mg/mL, 1.6 mg/mL and 2.98 mg/mL, respectively. The proteins were snap frozen in liquid nitrogen and stored at −80° C. for later use.

[10] = target: T5, TRABD2A protein on CD8^+ T cells (Homo sapiens, UniProt Q86V40); assay: Killing of target cells by CD8+ T cells after intervention with TRABD2A antibody; format: cell-based; settings: antibody removed or unremoved after incubation; FIG. 7A
T5 construct: action of metal ions Mn^2+, Co^2+ and Ni^2+ on TRABD2A metalloprotease on CD8^+ T cells; endogenous in cells
T5 sequence (Q86V40 22-480): T1 sequence (Q86V40 22-480)
Experimental: Two modes were adopted for intervening with TRABD2A protein on CD8^+ T cells, and the difference of the two modes was that the CD8^+ T cells, after incubation with the antibody, kill the target cells with residual blocking antibody removed or unremoved.

[11] = target: T6, TRABD2B protein (Homo sapiens, UniProt A6NFA1); assay: Binding of anti-TRABD2A/2B bispecific antibody to antigen TRABD2B protein; settings: detection with antigen; FIG. 6C
T6 sequence (A6NFA1 20-486): T3 sequence (A6NFA1 20-486)
Experimental: (§1) The bispecific antibody (amino acid sequences of heavy and light chains are set forth in SEQ IN NOs: 29 and 30, respectively) and negative control (amino acid sequences of heavy and light chains are set forth in SEQ IN NOs: 33 and 24, respectively) antibody synthesized in Example 5-3 were used. […] After the antibodies were concentrated, the protein concentration of anti-TRABD2A/2B was 1.23 mg/mL and that of the negative control was 1.02 mg/mL, as measured by A280. The proteins were snap frozen in liquid nitrogen and stored at −80° C. for later use.

[12] = target: T1, TRABD2A protein; assay: Binding of anti-TRABD2A/2B bispecific antibody to antigen TRABD2A protein; settings: detection with antigen; FIG. 6C
Experimental: as §1

[13] = tested on: TRABD2A and TRABD2B proteins; assay: Killing of target cells by CD8+ T cells under intervention with bispecific anti-TRABD2A/2B antibody; format: cell-based, human; settings: FIG. 7C
Description: The effect of the bispecific antibody blocking both TRABD2A and TRABD2B proteins on target cell killing ability of CD8^+ T cells were examined.

c1cnc2c(c1)ccc1cccnc12 [1,10-phenanthroline]
function of TRABD protein [1]: inhibited

[Ca+2] [Ca^2+]
activity of the TRABD2A protein [2]: independent

[Co+2] [Co^2+]
TRABD protease activity [1]: increase | activity of the TRABD2A protein [2]: inhibited | toxic effect on CD8^+ T cells and target cells [3]: little toxic effect | tumor killing ability of CD8^+ T cells [4]: enhanced

[Cu+2] [Cu^2+]
TRABD protease activity [1]: opposite effect

O=C(O)CN(CCN(CC(=O)O)CC(=O)O)CC(=O)O [EDTA]
function of TRABD protein [1]: inhibited

[Fe+3] [Fe^3+]
activity of the TRABD2A protein [2]: independent

[Mg+2] [Mg^2+]
activity of the TRABD2A protein [2]: independent

[Mn+2] [Mn^2+]
TRABD protease activity [1]: increase | tumor killing ability of CD8^+ T cells [4]: not enhanced

[Ni+2] [Ni^2+]
tumor killing ability of CD8^+ T cells [5]: enhanced | TRABD protease activity [1]: opposite effect | activity of the TRABD2A protein [2]: inhibited | toxic effect on CD8^+ T cells and target cells [3]: little toxic effect | tumor killing ability of CD8^+ T cells [4]: enhanced | toxic effect on cells [6]: little toxic effect

negative control antibody of Example 6-1
EC50 [7]: 14.1 µg/mL

B1: anti-TRABD2A-1 (antibody)
heavy: DASTLQRGVPSRFGGSGQMTQSPSSASTLQRGVPSRFGGSGSQSINRASTLQRGVPSRFGGSGGKAPKLVIYAASSLQSGVPSRFSGSGSGTDFTLTISSLQ
light: ASTLQRGVISWVRASTLQRGVPSRFGGSGPIFGTANYAQKFQGRVTITADESTSTAYMELSSLRSEDTAVYYASTLQRGVPSRFGGSGYYWGQGTPVTVSS
EC50 [8]: 0.306 µg/mL | binding to antigen [9]: high binding efficiency | effect on target cell killing ability of CD8^+ T cells [10]: enhanced effect

B2: anti-TRABD2A-2 (antibody)
heavy: APKLLIYAASSLRSGVPSRFSGSTCRASQSINRYLNWYQAPKLLIYAASSLRSGVPSRFSGSYAASSLQSGVPSRFSGSGSGTDFTLTISSLQPEDFATYYCQQGGTKV
light: YYWGQGTPVTVSKKPGSSVKVSAPKLLIYAASSLRSGVPSRFSGSGTFSSYAISWVRQAPGQGLEWMGGIIPIFGTANYAQKFQGRVTITADESTSTAYMELSSLRSEDTA
EC50 [8]: 0.128 µg/mL | binding to antigen [9]: high binding efficiency | effect on target cell killing ability of CD8^+ T cells [10]: enhanced effect

B3: anti-TRABD2A/2B bispecific antibody: bispecific antibody recognizing both TRABD2A and TRABD2B; heavy and light chains SEQ ID NOs: 29 and 30 (antibody)
heavy: YQSQSINRYLNWYQQKPGKSNYLNWAPKLVIYAASSLQYCQQYNFYPLTFGYLNWYQSSGTYLNWYQQRPGKAPSSGTYQRPGKAPGGTKVSNYLNWYQSN
light: YAQKFQGRVTITVKVSCKASGGTFSSYAISWVRQAPGQGLEWMGQVQLVQSGAEVKKPGSSGIIPIFGTANADESTSTAYMELSSLRSEDTAVYYCARTRGYS
binding to TRABD2B [11]: capable of binding | binding to TRABD2A [12]: capable of binding | effect on the killing of target cells by CD8^+ T cells [13]: enhancing effect
